Data set [1] concerns 10DM24 deoxyribozyme. The data set can be described thus: Ligation with full-length R oligonucleotide as substrate, varied 5′-terminal nucleotide. The conditions noted are these: for kobs: full-length R substrate, deoxyribozyme nucleotide changed to maintain Watson-Crick complementarity. Format: biochemical. As to the method: (§1) General Description of Kinetic Assays. All kinetic assays with the 10DM24 deoxyribozyme and its variants were performed according to established methods (Flynn-Charlebois, et al. (2003) supra; Wang and Silverman (2003) supra). The 5′-^32P-labeled RNA substrate (L for “left-hand substrate”) that provides the branch-site adenosine was the limiting reagent relative to 10DM24 (E) and the truncated cofactor RNA (RΔ; R originally derived from “right-hand substrate”). The ratio L:E:RΔ was 1:10:30, with 0.25 μM 10DM24. The cofactor RΔ was 5′-phosphorylated unless otherwise stated. The RNA substrate L, deoxyribozyme 10DM24 and cofactor RΔ were annealed in 5 mM HEPES, pH 7.5, 15 mM NaCl, 0.1 mM EDTA by heating at 95° C. for 3 minutes and cooling on ice for 5 minutes. The ligation reactions were performed with the appropriate concentration of NTP substrate (0.05-50 mM) at a final buffer concentration of 100 mM CHES, pH 9.0, 150 mM NaCl, 2 mM KCl, and 40-400 mM MgCl2 at 37° C. for up to 5 hours. The combination of 1 mM NTP and 40 mM MgCl2 was defined as “standard incubation conditions”; 10 mM NTP and 150 mM MgCl2 was defined as “enhanced incubation conditions”. At appropriate timepoints, aliquots were removed from the sample, quenched into stop solution (80% formamide, 1× TB [89 mM each Tris and boric acid, pH 8.3], and 50 mM EDTA containing 0.025% bromophenol blue and xylene cyanol) and stored at −20° C. prior to analysis. Samples were separated by 20% denaturing PAGE at 30 W for 115 minutes and imaged with a PHOSPHORIMAGER. The resulting data were fit to the equation yield=Y·(1−e^−kt), where k=kobs and Y=final yield.
The generality of the ligation reaction using other NTP substrates in place of GTP was also determined. The analogous reaction with the full-length R oligonucleotide as substrate proceeded well when a 5′-terminal G was present (kobs 0.51 min^−1 for 5′-AppG), with only three-fold reduced rate with 5′-AppA (kobs 0.18 min^−1). The RNA substrate with 5′-AppC reacted 20-fold more slowly than 5′-AppG, but still gave high yield (kobs 0.024 min^−1; 89% in 3 hours), whereas the yield with 5′-AppU was very poor (kobs 0.002 min^−1; 9% in 3 hours). It is noted that in all cases, the corresponding deoxyribozyme nucleotide was changed to maintain Watson-Crick complementarity.

The subject of data set [2] is 10DM24 deoxyribozyme. The data set can be described thus: 10DM24-catalyzed ligation of small-molecule NTP substrate to branch-site adenosine of RNA substrate L with cofactor RΔ. Format: biochemical. The conditions noted are these: for krel = kobs,NTP*/kobs,NTP: relative to GTP. How it is done:
as §1
Use of Free NTPs as Substrates. It was determined whether 10DM24 could catalyze ligation with free GTP as a substrate (see FIG. 1B), thereby transferring guanosine 5′-monophosphate (GMP) to the branch-site adenosine 2′-hydroxyl group. When RΔ, an oligoribonucleotide cofactor that corresponds to all of the remaining nucleotides of R, was added to 10DM24 along with GTP, ligation was efficient (FIG. 8; 94% yield in 5 hours and kobs 0.034 min^−1 under the standard incubation conditions of 1 mM GTP and 40 mM MgCl2 at pH 9.0, 37° C.). The RNA product with the single added guanosine at the branch-site adenosine was PAGE-purified and the identity confirmed by partial alkaline hydrolysis (50 mM NaHCO3 at 95° C. for 5 minutes) and MALDI mass spectrometry (m/z calcd. 5433, found 5437±5).

A further data set concerns 10DM24 variant. The data set can be described thus: Ligation of ATP as substrate and cofactor with RΔΔ, P4 nucleotides 43 and 44 changed CC→TT. The conditions noted are these: 20 mM ATP, 150 mM MgCl2, RΔΔ. It counts as biochemical.
The test system of data set [3] is 10DM24-C44T mutant deoxyribozyme. The data set can be described thus: Ligation of NTP substrate with 10DM24 variant in which the terminal P4 nucleotide is changed C→T, cofactor RΔ. Format: biochemical. The conditions noted are these: for krel = kobs,NTP*/kobs,NTP: relative to ATP. As to the method: as §1
Focus was then placed on the purine NTPs (GTP, ATP) and their derivatives. When 1 mM ATP was provided as a small molecule substrate in place of GTP using the original 10DM24 sequence and RΔ, no reaction was observed (<1% in 5 hours). […] Furthermore, the kobs increased sixteen-fold to 0.013 min^−1 under enhanced conditions with 10 mM ATP (82% yield in 3 hours).

For data set [4], the system named is 10DM24 deoxyribozyme. The data set can be described thus: Ligation of GTP or pppGpG in presence of shorter cofactor RΔΔ. It counts as biochemical. As to the method: It was subsequently shown that a binding site for an NTP cofactor can be located adjacent to the substrate binding site. This was achieved by removing an additional nucleotide from the RΔ cofactor, forming the shorter RΔΔ cofactor which required two added nucleotides to reconstitute the complete P4 region (FIG. 10). The 10DM24-catalyzed ligation reaction of GTP in the presence of the two-nucleotide short cofactor RΔΔ was performed with the 5′-^32P-labeled RNA substrate (L) that provides the branch-site adenosine as the limiting reagent. For kinetic assays, the ratio of L:E:RΔΔ was 1:10:30 with 0.25 μM deoxyribozyme (E). For isolation of the reaction products, the ratio L:E:RΔΔ was 1:2:3 with 1.5 μM deoxyribozyme. The reaction was performed under the enhanced incubation conditions with 20 mM GTP and 150 mM MgCl2 in 100 mM CHES, pH 9.0, 150 mM NaCl, and 2 mM KCl at 37° C. for up to 7 hours. […] Both products were isolated and shown by partial alkaline hydrolysis to be branched with the connectivities A-G and A-GG (where A is the branch-site adenosine).
It was contemplated that the new A-GG product was formed by initial templated but otherwise uncatalyzed synthesis of a GG dinucleotide (i.e., pppGpG) from two GTP molecules, followed by 10DM24-catalyzed branch formation using this dinucleotide. […] The reaction was performed under the enhanced incubation conditions of 20 mM GTP and 150 mM MgCl2. […] The pppGpG dinucleotide was synthesized independently using T7 RNA polymerase (Huang, et al. (1998) supra) and led solely to the A-GG product. Although the pppGpG substrate had Kd,app of >1 mM with RΔΔ, similar to Kd,app for GTP with RΔ, the ligation reaction with pppGpG and RΔΔ had kobs six-fold higher than for the analogous reaction with GTP and RΔ (Table 8).
(§2) Similar experiments were performed using the mutant 10DM24 deoxyribozyme that has CTTT rather than CCTT in the P4 region (FIG. 11). For the DNA-catalyzed ligation of pppGpG, the 5′-^32P-labeled RNA with the branch-site adenosine (L) was incubated with the 10DM24 deoxyribozyme (E) and the cofactor RΔΔ in the ratio of L:E:RΔΔ=1:10:30 in the presence of 1 mM pppGpG and 40 mM MgCl2 in 100 mM CHES pH 9.0, 150 mM NaCl, and 2 mM KCl at 37° C. The analysis of the ligation reaction was performed as described herein. […] This is consistent with the model that pppGpG and the first two nucleotides of RΔΔ together reconstitute the P4 helix. When the ligation reaction with pppGpG was tested in the presence of RΔ instead of RΔΔ, the ligation product A-GG was formed, but with a 10-fold decrease in kobs (squares in FIG. 11). Because RΔ provides an extraneous G nucleotide when combined with pppGpG (see legend of FIG. 11), some disruption in activity is perhaps anticipated. […] This is consistent with the observation that GTP was also not a substrate for the 10DM24-C44T mutant deoxyribozyme.
The ligation reaction of pppGpG was also performed using a variety of pppGpG concentrations with the parent 10DM24 deoxyribozyme in the presence of RΔΔ and 40 mM MgCl2. In FIG. 12, the kobs values are plotted versus [pppGpG] and fit to kobs=kmax·[pppGpG]/(Kd,app+[pppGpG]). The Kd,app for pppGpG was >1 mM.

The test system of data set [5] is 10DM24 deoxyribozyme. The data set can be described thus: Multiple-turnover ligation of GTP. Format: biochemical. The text has this: In contrast, upon 10DM24-catalyzed reaction of the oligoribonucleotide 2′-hydroxyl group with the NTP substrate, the binding affinity of the RNA for the deoxyribozyme was not expected to increase substantially. Thus, the capability of the engineered 10DM24 deoxyribozyme to catalyze the multiple-turnover ligation of GTP was examined. The 10DM24 deoxyribozyme was the limiting reagent, with the RNA substrate that provides the branch-site adenosine (L) in 10-fold excess over the deoxyribozyme (L:E:RΔ=10:1:3). The reaction was performed under the standard incubation conditions described herein using 1 mM GTP and 40 mM MgCl2 at 37° C. After 5 hours, the product yield was 50%, corresponding to 5 turnovers. Accordingly, with GTP as substrate, multiple-turnover behavior was shown using an RNA ligase deoxyribozyme.

For another data set, the target named is glmS riboswitch. The conditions noted are these: read-out: Kd,app; cited from earlier work.
Data set [6] deals with mutant 10DM24 deoxyribozyme that has CTTT rather than CCTT in the P4 region. The data set can be described thus: Ligation of pppGpG, second deoxyribozyme nucleotide in P4 mutated C→T. The conditions noted are these: 1 mM pppGpG, RΔΔ, 40 mM MgCl2. It counts as biochemical. As to the method:
as §2

Data set [7] concerns 10DM24-C44T mutant deoxyribozyme. The data set can be described thus: Ligation of pppGpG, first DNA nucleotide in P4 (nucleotide 44) changed C→T. Format: biochemical. The conditions noted are these: 1 mM pppGpG, RΔΔ, 40 mM MgCl2. As to the method:
as §2

The mark [8] stands for this setting: enhanced incubation conditions, 3 h.

These results are taken from US20080207885A1, “Method for site-specific labeling of RNA using a deoxyribozyme” (priority 2007, published 2008).

Where “and” joins values, the source holds several entries; their conditions need not be identical. Equal values may be shown once. {App} = adenylated (5'-5' adenylyl pyrophosphate) terminus A value given as a limit tells only on which side of the number the result lay.

Consider “5′-AppA: full-length R oligonucleotide substrate with 5′-terminal A (AGAAGAGAUGGCGACGG; RNA, 5' {App}, backbone not given here)”, for which the kobs with 10DM24 deoxyribozyme [1] was 0.18 min⁻¹.
“5′-AppC: full-length R oligonucleotide substrate with 5′-terminal C (CGAAGAGAUGGCGACGG; RNA, 5' {App}, backbone not given here)”: in the data set on 10DM24 deoxyribozyme [1], the “reacted more slowly than 5′-AppG” value was 20 fold, the “ligation yield in 3 hours” value is reported as 89% and the kobs worked out at 0.024 min⁻¹.
As to “5′-AppU: full-length R oligonucleotide substrate with 5′-terminal U (UGAAGAGAUGGCGACGG; RNA, 5' {App}, backbone not given here)”, in the data set on 10DM24 deoxyribozyme [1], the “ligation yield in 3 hours” value came to 9% and the kobs was 0.002 min⁻¹.
As for `Nc1ncnc2c1ncn2[C@@H]1O[C@H](COP(=O)(O)OP(=O)(O)OP(=O)(O)O)[C@@H](O)[C@H]1O` [ATP], the “ligation yield %, 5 h” value in the data set on 10DM24 deoxyribozyme [2] (standard incubation conditions) is listed as less than 1%; in data set [3] (standard incubation conditions) it was 33%. Besides, the ligation product formed entry with 10DM24 variant is “a small amount of the ATP ligation product”. In addition, in [3] (ATP series), the “kobs,enh/kobs,std” value is listed as 16. Besides, in [3] (setting [8]), the “ligation yield %, 3 h” value worked out at 82%. In addition, the kobs in data set [3] (enhanced incubation conditions: 10 mM NTP, 150 mM MgCl2, pH 9.0, 37° C.) stood at 0.013 min⁻¹; in [3] (standard incubation conditions: 1 mM NTP, 40 mM MgCl2, pH 9.0, 37° C., RΔ, ATP series), 0.0008 min⁻¹. The “krel = kobs,NTP*/kobs,NTP” value in data set [3] (enhanced incubation conditions) and in [3] (standard incubation conditions) was “(1)” each time.
As to `Nc1nc2c(ncn2[C@@H]2O[C@H](COP(=O)(O)OP(=O)(O)OP(=O)(O)O)[C@@H](O)[C@H]2O)c(=O)[nH]1` [GTP, guanosine 5′-triphosphate], the kobs in the data set on 10DM24 deoxyribozyme [4] (20 mM GTP + RΔΔ, 150 mM Mg2+) is 0.0008 min⁻¹; in the data set on 10DM24 deoxyribozyme [2] (enhanced incubation conditions: 10 mM NTP, 150 mM MgCl2, 100 mM CHES pH 9.0, 37° C.), 0.26 min⁻¹ and 0.262 min⁻¹; in the data set with 10DM24 deoxyribozyme [2] (standard incubation conditions: 1 mM NTP, 40 mM MgCl2, 100 mM CHES pH 9.0, 150 mM NaCl, 2 mM KCl, 37° C., RΔ) it was 0.034 min⁻¹. Further, the reaction products formed entry in the data set with 10DM24 deoxyribozyme [4] (RΔΔ cofactor, 20 mM NTP and 150 mM MgCl2, pH 9.0, 37° C.) is “two reaction products”. Besides, the “kobs,enh/kobs,std” value with 10DM24 deoxyribozyme [2] (GTP series) is 8. In the data set on 10DM24 deoxyribozyme [2] (setting [8]), the “ligation yield %, 3 h” value worked out at 94%. Besides, the “krel = kobs,NTP*/kobs,NTP” value in the data set with 10DM24 deoxyribozyme [2] (enhanced incubation conditions) and with 10DM24 deoxyribozyme [2] (standard incubation conditions) was “(1)” in each case. The Kd on 10DM24 deoxyribozyme [2] (from plot of kobs versus [GTP], RΔ, read-out: Kd,app) was greater than 1000 µM. For the same molecule, the “ligation yield %, 5 h” value in the data set on 10DM24 deoxyribozyme [2] (standard incubation conditions) was 94%; in data set [3] (standard incubation conditions) it was less than 1%. This molecule came in with a product yield in the data set with 10DM24 deoxyribozyme [5] (L:E:RΔ=10:1:3, 1 mM GTP, 40 mM MgCl2, 37° C., 5 hours) of 50%. The molecule also came in with a turnovers in the data set with 10DM24 deoxyribozyme [5] (after 5 hours, L in 10-fold excess over deoxyribozyme) of 5.
Consider `N[C@H]1C(O)O[C@H](COP(=O)(O)O)[C@@H](O)[C@@H]1O` (some centres unmarked) [glucosamine 6-phosphate], for which the Kd on glmS riboswitch was 200 µM.
Take `Nc1nc2c(ncn2[C@@H]2O[C@H](COP(=O)(O)O[C@H]3[C@@H](O)[C@H](n4cnc5c(=O)[nH]c(N)nc54)O[C@@H]3COP(=O)(O)OP(=O)(O)OP(=O)(O)O)[C@@H](O)[C@H]2O)c(=O)[nH]1` [pppGpG]: the kobs with 10DM24 deoxyribozyme [4] (1 mM pppGpG + RΔΔ, 40 mM Mg2+) was determined as 0.19 min⁻¹. For the same molecule, the product formation entry with 10DM24 deoxyribozyme [4] (1 mM pppGpG, 40 mM MgCl2, in the absence of RΔΔ) was “no product formation was observed”; in data set [7], “No product formation was observed”. Also, the results for the decrease in kobs (with 10DM24 deoxyribozyme [4] (in the presence of RΔ instead of RΔΔ); in [6]) were 10 fold and 130 fold, respectively. Further, the Kd at 10DM24 deoxyribozyme [4] (with RΔΔ, 40 mM Mg2+, pH 9.0, 37° C., read-out: Kd,app) is greater than 1000 µM.
